Test results as given in patent US20230117034A1, “PYRAZOLOTRIAZINES” (Bayer Aktiengesellschaft, priority 2019, published 2023).

Legend:
CDK9/CycT1 = target: T1, CDK9/CycT1 (Homo sapiens, UniProt P50750); experiment: CDK9/CycT1 high ATP kinase assay (TR-FRET, 2 mM ATP); assay type: biochemical; conditions: 2 mM ATP (high ATP); median; read-out: CDK9/CyclinT1, 2 mM ATP (high ATP), IC50 (median)
T1 construct: Recombinant full-length His-tagged human CDK9 and CycT1; purchased Life Technologies PV4131; host or cells: insect cells
T1 sequence (P50750 whole entry): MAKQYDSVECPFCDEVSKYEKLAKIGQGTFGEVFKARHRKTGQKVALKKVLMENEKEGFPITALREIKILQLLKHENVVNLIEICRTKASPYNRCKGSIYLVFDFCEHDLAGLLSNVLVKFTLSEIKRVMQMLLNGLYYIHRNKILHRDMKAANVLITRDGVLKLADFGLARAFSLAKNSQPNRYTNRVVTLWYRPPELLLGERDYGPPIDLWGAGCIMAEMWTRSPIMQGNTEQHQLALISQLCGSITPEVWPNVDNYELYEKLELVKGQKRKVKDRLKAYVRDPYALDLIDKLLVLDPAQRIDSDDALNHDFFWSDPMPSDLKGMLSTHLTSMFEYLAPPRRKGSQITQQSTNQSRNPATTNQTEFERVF
T1 sequence (O60563 whole entry partner): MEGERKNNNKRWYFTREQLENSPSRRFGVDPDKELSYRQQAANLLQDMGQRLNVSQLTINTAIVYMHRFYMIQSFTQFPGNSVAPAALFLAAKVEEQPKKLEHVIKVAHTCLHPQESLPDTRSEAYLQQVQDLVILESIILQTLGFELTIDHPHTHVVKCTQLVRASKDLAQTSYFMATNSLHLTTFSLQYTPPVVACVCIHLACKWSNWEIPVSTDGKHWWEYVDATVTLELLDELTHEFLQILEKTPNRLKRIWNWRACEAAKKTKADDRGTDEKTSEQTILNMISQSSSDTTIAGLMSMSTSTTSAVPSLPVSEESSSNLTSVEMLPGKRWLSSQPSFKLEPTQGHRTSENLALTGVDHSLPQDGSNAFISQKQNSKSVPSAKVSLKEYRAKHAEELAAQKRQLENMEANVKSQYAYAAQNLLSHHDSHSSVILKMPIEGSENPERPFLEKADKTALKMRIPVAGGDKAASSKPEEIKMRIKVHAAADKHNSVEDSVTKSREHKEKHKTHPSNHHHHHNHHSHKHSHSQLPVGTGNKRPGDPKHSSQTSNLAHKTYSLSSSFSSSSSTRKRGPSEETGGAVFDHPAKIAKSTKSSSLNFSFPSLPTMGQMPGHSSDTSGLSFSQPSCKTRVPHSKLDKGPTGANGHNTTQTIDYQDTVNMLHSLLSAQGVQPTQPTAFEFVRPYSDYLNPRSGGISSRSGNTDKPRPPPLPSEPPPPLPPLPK
Procedure, shortened: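 Full-length His-tagged human CDK9/CycT1 (insect cell, ~0.5 μg/mL) preincubated 15 min at 22 °C with compound in Tris pH 8.0, MgCl2, DTT buffer before reaction with biotinylated peptide substrate at high ATP (2 mM).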

[1] = system: MDA-MB-231, human breast cancer cells; experiment: Proliferation assay MDA-MB-231 (crystal violet, 4 days); assay type: cell-based; conditions: Homo sapiens, MDA-MB-231, 96 h, MDA-MB-231 cells, median, read-out: Prolif-MDA MB-231, IC50-[mol/l] (median)
Procedure, shortened: (§1)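 Plated 4,000 cells/well, 10% FCS; 24 h later treated 0.01-10 µmol/L cpd (DMSO 0.1%), 4 d. Fix glutaraldehyde, stain 0.1% crystal violet pH 3.0, elute acetic acid, A595. Normalized to t0 plate/untreated; 4-param IC50.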

[2] = system: CAL-120, human breast adenocarcinoma cells; experiment: Proliferation assay CAL-120 (crystal violet, 4 days); assay type: cell-based; conditions: Homo sapiens, CAL-120, 96 h, CAL-120 cells, median, read-out: Prolif-CAL-120, IC50-[mol/l] (median)
Procedure, shortened: as §1

[3] = target: T2, CYCLIN K (nuclear staining in CAL-120 cells) (Homo sapiens, UniProt O75909); experiment: CYCLIN K nuclear protein level: immunofluorescence high content analysis (CAL-120); assay type: cell-based; conditions: 24 h, 50% reduction of nuclear CCNK staining intensity, median, read-out: CYCLIN K degradation IF, DC50-[mol/l] (median)
T2 construct: endogenous in cells; host or cells: CAL-120 human breast cancer cells (DSMZ ACC 459)
T2 sequence (O75909 whole entry): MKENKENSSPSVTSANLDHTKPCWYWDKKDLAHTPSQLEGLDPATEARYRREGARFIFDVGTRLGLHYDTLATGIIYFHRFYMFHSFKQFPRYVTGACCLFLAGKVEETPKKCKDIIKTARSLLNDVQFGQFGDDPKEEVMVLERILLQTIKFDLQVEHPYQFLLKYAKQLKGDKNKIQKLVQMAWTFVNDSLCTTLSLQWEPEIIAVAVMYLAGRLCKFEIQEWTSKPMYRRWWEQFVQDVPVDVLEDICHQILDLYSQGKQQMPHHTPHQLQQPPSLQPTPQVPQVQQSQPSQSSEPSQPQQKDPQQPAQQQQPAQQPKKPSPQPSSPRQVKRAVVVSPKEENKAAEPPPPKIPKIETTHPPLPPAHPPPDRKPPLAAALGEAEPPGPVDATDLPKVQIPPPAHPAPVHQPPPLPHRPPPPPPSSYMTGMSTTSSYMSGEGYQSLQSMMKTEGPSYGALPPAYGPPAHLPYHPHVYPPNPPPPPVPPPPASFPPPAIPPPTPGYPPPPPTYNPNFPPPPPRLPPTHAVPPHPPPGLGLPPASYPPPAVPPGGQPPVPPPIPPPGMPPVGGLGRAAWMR
T2 sequence (Q9NYV4 whole entry partner): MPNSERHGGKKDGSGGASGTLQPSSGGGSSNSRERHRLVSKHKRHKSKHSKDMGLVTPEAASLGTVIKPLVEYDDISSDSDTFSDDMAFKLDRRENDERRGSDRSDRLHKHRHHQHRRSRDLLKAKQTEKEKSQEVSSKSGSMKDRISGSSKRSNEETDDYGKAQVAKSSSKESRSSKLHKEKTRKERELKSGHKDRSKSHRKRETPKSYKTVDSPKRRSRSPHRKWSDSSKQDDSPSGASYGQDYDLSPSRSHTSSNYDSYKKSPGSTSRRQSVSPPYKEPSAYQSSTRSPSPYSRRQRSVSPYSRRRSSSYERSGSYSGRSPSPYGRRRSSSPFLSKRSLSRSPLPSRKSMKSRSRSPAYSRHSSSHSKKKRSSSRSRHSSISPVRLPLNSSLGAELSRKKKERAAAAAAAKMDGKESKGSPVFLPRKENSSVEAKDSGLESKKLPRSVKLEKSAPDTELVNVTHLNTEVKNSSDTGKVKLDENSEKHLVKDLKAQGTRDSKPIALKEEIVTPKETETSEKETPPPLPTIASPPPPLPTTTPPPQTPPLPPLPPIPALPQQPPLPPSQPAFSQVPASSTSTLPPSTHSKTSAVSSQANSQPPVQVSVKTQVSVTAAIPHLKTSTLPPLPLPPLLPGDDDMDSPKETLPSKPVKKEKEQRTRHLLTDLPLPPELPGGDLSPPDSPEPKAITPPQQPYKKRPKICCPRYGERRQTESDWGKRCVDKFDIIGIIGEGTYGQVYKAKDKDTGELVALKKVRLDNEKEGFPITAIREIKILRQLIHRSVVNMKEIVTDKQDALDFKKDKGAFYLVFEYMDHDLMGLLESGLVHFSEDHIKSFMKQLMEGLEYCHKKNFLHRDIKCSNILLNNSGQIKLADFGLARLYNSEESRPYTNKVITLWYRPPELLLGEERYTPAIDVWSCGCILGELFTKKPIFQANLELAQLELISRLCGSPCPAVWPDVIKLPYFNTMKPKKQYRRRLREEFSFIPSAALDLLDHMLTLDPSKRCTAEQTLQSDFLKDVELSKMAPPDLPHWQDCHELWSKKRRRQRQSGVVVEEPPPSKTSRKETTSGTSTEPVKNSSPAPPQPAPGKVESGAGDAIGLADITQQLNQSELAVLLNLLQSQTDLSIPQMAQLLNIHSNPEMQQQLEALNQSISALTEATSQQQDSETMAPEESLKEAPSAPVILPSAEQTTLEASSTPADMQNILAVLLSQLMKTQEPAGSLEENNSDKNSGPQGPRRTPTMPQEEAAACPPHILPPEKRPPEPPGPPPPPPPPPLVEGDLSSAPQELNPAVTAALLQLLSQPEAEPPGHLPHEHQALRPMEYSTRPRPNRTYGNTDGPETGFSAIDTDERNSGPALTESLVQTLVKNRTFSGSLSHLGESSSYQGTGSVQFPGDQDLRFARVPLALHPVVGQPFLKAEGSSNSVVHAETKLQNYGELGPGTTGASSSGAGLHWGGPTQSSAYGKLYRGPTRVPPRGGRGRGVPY
Procedure, shortened: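 CAL-120 breast cancer cells treated in dose-response for 24 h at 37 °C, PFA-fixed and immunostained for cyclin K with Hoechst counterstain. Confocal imaging quantified nuclear intensity; DC50 is the concentration giving 50% reduction of nuclear CCNK staining, normalized to DMSO and control.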

| IC50 (CDK9/CycT1) [nM] | IC50 [1] [nM] | IC50 [2] [nM] | DC50 [3] [nM] | Compound |
| --- | --- | --- | --- | --- |
| > 18700 | 40.1 | 36.3 | 4.19 | CN(CC(C)(C)O)c1nc(NCc2nc3ccccc3[nH]2)n2ncc(Br)c2n1 [Example 238, 1-[(4-{[(1H-benzimidazol-2-yl)methyl]amino}-8-bromopyrazolo[1,5-a][1,3,5]triazin-2-yl)(methyl)amino]-2-methylpropan-2-ol] |
| > 20000 | 164 | 164 | 19.7 | CN(CCO)c1nc(NCc2nc3ccccc3[nH]2)n2ncc(Br)c2n1 [Example 237, 2-[(4-{[(1H-benzimidazol-2-yl)methyl]amino}-8-bromopyrazolo[1,5-a][1,3,5]triazin-2-yl)(methyl)amino]ethan-1-ol] |
| 2200 | 10.7 | 4.67 | 0.318 | OC[C@@H]1CCCCN1c1nc(NCc2nc3c(F)cccc3[nH]2)n2ncc(C3CC3)c2n1 [Example 189, [(2S)-1-(8-cyclopropyl-4-{[(4-fluoro-1H-benzimidazol-2-yl)methyl]amino}pyrazolo[1,5-a][1,3,5]triazin-2-yl)piperidin-2-yl]methanol] |
| > 20000 | 35.7 | 21.1 | 0.685 | CN1C[C@H]2C[C@@H]1CN2c1nc(NCc2nc3ccccc3[nH]2)n2ncc(Br)c2n1 [Example 218, N-[(1H-benzimidazol-2-yl)methyl]-8-bromo-2-[(1R,4R)-5-methyl-2,5-diazabicyclo[2.2.1]heptan-2-yl]pyrazolo[1,5-a][1,3,5]triazin-4-amine] |
| > 20000 | 5.35 | 2.43 | 0.894 | Fc1ccc2[nH]c(CNc3nc(N4CCOCC4)nc4c(C5CC5)cnn34)nc2c1F [Example 172, 8-cyclopropyl-N-[(4,5-difluoro-1H-benzimidazol-2-yl)methyl]-2-(morpholin-4-yl)pyrazolo[1,5-a][1,3,5]triazin-4-amine] |
| > 20000 | 6.64 | 5.06 | 0.958 | Cc1ccc2[nH]c(CNc3nc(N4CCOCC4)nc4c(C5CC5)cnn34)nc2c1 [Example 193, 8-cyclopropyl-N-[(5-methyl-1H-benzimidazol-2-yl)methyl]-2-(morpholin-4-yl)pyrazolo[1,5-a][1,3,5]triazin-4-amine] |
| 1640 | 10.3 | 9.27 | 0.929 | OC[C@@H]1CCCCN1c1nc(NCc2nc3c(F)c(F)ccc3[nH]2)n2ncc(C3CC3)c2n1 [Example 184, [(2S)-1-(8-cyclopropyl-4-{[(4,5-difluoro-1H-benzimidazol-2-yl)methyl]amino}pyrazolo[1,5-a][1,3,5]triazin-2-yl)piperidin-2-yl]methanol] |
| > 20000 | 1.69 | 1.02 | 0.119 | Cc1ccc2[nH]c(CNc3nc(N4C[C@@H]5CCCN[C@@H]5C4)nc4c(Br)cnn34)nc2c1 [Example 203, 8-bromo-N-[(5-methyl-1H-benzimidazol-2-yl)methyl]-2-[(4aS, 7aS)-octahydro-6H-pyrrolo[3,4-b]pyridin-6-yl]pyrazolo[1,5-a][1,3,5]triazin-4-amine] |
| > 20000 | 4.01 | 6.68 | 0.268 | Fc1ccc2[nH]c(CNc3nc(N4CCNCC4)nc4c(C5CC5)cnn34)nc2c1 [Example 190, 8-cyclopropyl-N-[(5-fluoro-1H-benzimidazol-2-yl)methyl]-2-(piperazin-1-yl)pyrazolo[1,5-a][1,3,5]triazin-4-amine] |
| > 20000 | 97.9 | 44.9 | 4.56 | CN1CC[C@@H]2CN(c3nc(NCc4nc5ccccc5[nH]4)n4ncc(Br)c4n3)C[C@@H]21 [Example 217, N-[(1H-benzimidazol-2-yl)methyl]-8-bromo-2-[(3aR,6aR)-1-methylhexahydropyrrolo[3,4-b]pyrrol-5 (1H)-yl]pyrazolo[1,5-a][1,3,5]triazin-4-amine] |
| > 20000 | 12.9 | 8.05 | 2.29 | Cc1ccc2[nH]c(CNc3nc(N4C[C@H]5C[C@@H]4CO5)nc4c(C5CC5)cnn34)nc2c1 [Example 196, 8-cyclopropyl-N-[(5-methyl-1H-benzimidazol-2-yl)methyl]-2-[(1R,4R)-2-oxa-5-azabicyclo[2.2.1]heptan-5-yl]pyrazolo[1,5-a][1,3,5]triazin-4-amine] |
| > 20000 | 58.8 | 18.6 | 2 | Fc1ccc2[nH]c(CNc3nc(N4C[C@@H]5C[C@H]4CO5)nc4c(C5CC5)cnn34)nc2c1 [Example 185, 8-cyclopropyl-N-[(5-fluoro-1H-benzimidazol-2-yl)methyl]-2-[(1S,4S)-2-oxa-5-azabicyclo[2.2.1]heptan-5-yl]pyrazolo[1,5-a][1,3,5]triazin-4-amine] |
| > 20000 | 24.8 | 10.7 | 1.55 | COc1cccc2[nH]c(CNc3nc(N4CCOCC4)nc4c(C5CC5)cnn34)nc12 [Example 213, 8-cyclopropyl-N-[(4-methoxy-1H-benzimidazol-2-yl)methyl]-2-morpholino-pyrazolo[1,5-a][1,3,5]triazin-4-amine] |
| > 20000 | 4.2 | 1.73 | 0.279 | COc1ccc2[nH]c(CNc3nc(N4C[C@@H](C)N[C@@H](C)C4)nc4c(Br)cnn34)nc2c1 [Example 205, 8-bromo-2-[(3R,5S)-3,5-dimethylpiperazin-1-yl]-N-[(5-methoxy-1 H-benzimidazol-2-yl)methyl]pyrazolo[1,5-a][1,3,5]triazin-4-amine] |
| 7340 | 9.68 | 1.16 | 0.187 | OC[C@@H]1CCCCN1c1nc(NCc2nc3cc(F)ccc3[nH]2)n2ncc(C3CC3)c2n1 [Example 191, [(2S)-1-(8-cyclopropyl-4-{[(5-fluoro-1H-benzimidazol-2-yl)methyl]amino}pyrazolo[1,5-a][1,3,5]triazin-2-yl)piperidin-2-yl]methanol] |
| > 20000 | 13.9 | 1.27 | 0.859 | Fc1ccc2[nH]c(CNc3nc(N4C[C@@H]5CCCN[C@@H]5C4)nc4c(C5CC5)cnn34)nc2c1 [Example 180, 8-cyclopropyl-N-[(5-fluoro-1H-benzimidazol-2-yl)methyl]-2-[(4aS, 7aS)-octahydro-6H-pyrrolo[3,4-b]pyridin-6-yl]pyrazolo[1,5-a][1,3,5]triazin-4-amine] |
| > 20000 | 28.9 | 29.6 | 1.26 | FC(F)(F)c1cnn2c(NCc3nc4ccccc4[nH]3)nc(N3CCOCC3)nc12 [Example 241, N-[(1H-benzimidazol-2-yl)methyl]-2-(morpholin-4-yl)-8-(trifluoromethyl) pyrazolo[1,5-a][1,3,5]triazin-4-amine] |
| > 20000 | 16.8 | 8.55 | 0.354 | CC1(C)CN(c2nc(NCc3nc4ccccc4[nH]3)n3ncc(Br)c3n2)CCN1 [Example 216, N-[(1H-benzimidazol-2-yl)methyl]-8-bromo-2-(3,3-dimethylpiperazin-1-yl)pyrazolo[1,5-a][1,3,5]triazin-4-amine] |
| > 20000 | 2.25 | 1 | 0.415 | C[C@@H]1CN(c2nc(NCc3nc4c(F)c(F)ccc4[nH]3)n3ncc(C4CC4)c3n2)C[C@H](C)N1 [Example 170, 8-cyclopropyl-N-[(4,5-difluoro-1H-benzimidazol-2-yl)methyl]-2-[(3R,5S)-3,5-dimethylpiperazin-1-yl]pyrazolo[1,5-a][1,3,5]triazin-4-amine] |
| > 20000 | 42.8 | 39.4 | 0.39 | CC(C)(O)CNc1nc(NCc2nc3ccccc3[nH]2)n2ncc(Br)c2n1 [Example 229, 1-[(4-{[(1H-benzimidazol-2-yl)methyl]amino}-8-bromopyrazolo[1,5-a][1,3,5]triazin-2-yl)amino]-2-methylpropan-2-ol] |
| > 20000 | 74.8 | 16.7 | 1.37 | CN1CC[C@H]2CN(c3nc(NCc4nc5ccccc5[nH]4)n4ncc(Br)c4n3)C[C@H]21 [Example 179, N-[(1H-benzimidazol-2-yl)methyl]-8-bromo-2-[(3aS,6aS)-1-methylhexahydropyrrolo[3,4-b]pyrrol-5 (1H)-yl]pyrazolo[1,5-a][1,3,5]triazin-4-amine] |
| > 20000 | 4.91 | 3.08 | 0.589 | Cc1ccc2[nH]c(CNc3nc(N4C[C@H]5C[C@@H]4CO5)nc4c(Br)cnn34)nc2c1 [Example 192, 8-bromo-N-[(5-methyl-1H-benzimidazol-2-yl)methyl]-2-[(1R,4R)-2-oxa-5-azabicyclo[2.2.1]heptan-5-yl]pyrazolo[1,5-a][1,3,5]triazin-4-amine] |
